Values of other authors in patent publication US8685965B2, “CGRP receptor antagonists” (Merck Sharp & Dohme Corp., priority 2008, dated 2014).
Ends that are not written are not given here.

Experiments:
[1] = tested on: acute attacks of migraine; conditions: clinical trials; Olesen et al. 2004
[2] = tested on: headache induced by CGRP infusion; conditions: control group; Petersen et al. 2005
[3] = tested on: facial blood flow; conditions: marmoset; Doods et al. 2000
[4] = tested on: middle meningeal artery; conditions: rats, prior administration; Williamson et al. 1997
[5] = tested on: facial blood flow; conditions: rat; Escott et al. 1995

| Compound | efficacy in treating acute attacks of migraine [1] | prevention of headache induced by CGRP infusion [2] | effect on increase of facial blood flow after electrical stimulation of the trigeminal ganglion [3] | effect on increase of middle meningeal artery diameter after electrical stimulation of the dura mater [4] | effect on increase of facial blood flow after trigeminal ganglion stimulation [5] |
| --- | --- | --- | --- | --- | --- |
| NCCCC[C@H](NC(=O)[C@@H](Cc1cc(Br)c(O)c(Br)c1)NC(=O)N1CCC(N2Cc3ccccc3NC2=O)CC1)C(=O)N1CCN(c2ccncc2)CC1 [BIBN4096BS] | effective in treating acute attacks of migraine | able to prevent headache induced by CGRP infusion | could be blocked |  |  |
| CGRP(8-37): a peptide CGRP antagonist; fragment of CGRP that lacks seven N-terminal amino acid residues (VTHRLAGLLSRSGGVVKNNFVPTNVGSKAF; ends and bridges not checked; UniProt P06881 90-119, looked up, fragment) |  |  |  | blocked | inhibited |
